Reference: patent US20070092877A1, “Bcrm-1 genes and uses thereof” (priority 2003, published 2007)

System: 293T cells stably transfected with a BCRM-1 expression vector
Test: clonogenic assays of stably transfected 293T cells with cisplatin
Type: cell-based
Details: clone with the highest level of BCRM-1 vs control vector transfectants, FIG. 3
Excerpt: To investigate whether BCRM-1 could render cells resistant to DNA-damaging agents, 293T cells were stably transfected with a BCRM-1 expression vector (FIG. 3). The BCRM-1 full length EcoRI-XhoI fragment was cloned into the EcoRI-XhoI sites of the pcDNA6/Bsd vector (Clontech, Palo Alto, Calif.). 293T cells were transfected with the BCRM/bsd vector or an empty pcDNA/bsd vector, respectively, by the method described in Example 8 above; Stable transfectants were selected through serial passages in the presence of blasticidin 10 μg/ml (Clontech, Palo Alto, Calif.). These blasticidin-resistant clones were isolated and repicked using the same selection procedure. One of these clones expressed the highest level of BCRM-1 by Western blotting. It was further tested in clonogenic assays and found to be 5-10 times more resistant to DNA damaging agent cisplatin than 293T cells stably transfected with the control vector (FIG. 3).

For N.N.[Cl][Pt][Cl] [cisplatin], which “resistance to cisplatin of the BCRM-1 expressing clone relative to 293T cells stably transfected with the control vector” value is on record?
The value was 5-10 times.
